Read-outs that look alike come from different tables or passages of the source.
Columns and labels:
[1] = target: T1, purified recombinant HIV-1 PR (Human immunodeficiency virus type 1 group M subtype B, UniProt P04585); assay: Reactivation of inhibited HIV-1 PR by photolysis at 405 nm, capillary set up; format: biochemical
T1 construct: This 99 amino acid long homodimeric aspartic PR; made in house; host or cells: Escherichia coli BL21(DE3) RIL
Method: (§1) To evaluate the efficacy of photodegradation, we analyzed the restoration of HIV-1 PR activity that had been inhibited by compound 1 (Fig. 3a) on irradiation at 405 nm. For irradiation, two lasers with outputs of 130 mW and 170 mW, respectively, were used in parallel. First, we tested a standard cuvette set up, in which 8 nM purified recombinant HIV-1 PR (final concentration of compound 1: 10 or 100 nM; Fig. 3b) in 1 ml cleavage buffer was irradiated. At the lower concentration, irradiation led to a significant restoration of enzyme activity (65% compared with the uninhibited enzyme reaction). At the higher concentration of compound 1, however, PR reactivation was limited even after prolonged irradiation (only 35% activity after 5 min of irradiation). […]
(§2) Figure 3 Kinetic analysis of HIV-1 PR reactivation by inhibitor photodegradation. […] The activity of purified recombinant HIV-1 PR was determined in vitro as described in the experimental section in the presence of the indicated inhibitor concentrations. […] The PR activity was then measured using a chromogenic substrate. […] Relative PR activity was determined as in b after 20-fold dilution into cleavage buffer using the same chromogenic substrate (for details, see Experimental section) and plotted against the flow rate of the sample through the capillary. […]

[2] = test system: HIV-1 PR inside immature HIV-1 particles; assay: Photoinduced Gag processing in immature HIV-1 particles produced with inhibitor (capillary irradiation, quantitative immunoblot); format: cell-based
Method: Having established conditions for the inhibition of HIV-1 polyprotein processing by compound 1, we proceeded to prepare immature particles for in situ activation of PR. For this, virus particles were produced in transfected HEK293T cells grown in the presence of 2 μM inhibitor. The experimental set up is schematically illustrated in Fig. 5a. Particles collected from inhibitor-treated cells were either subjected to inhibitor wash-out by two subsequent ultracentrifugation steps (Fig. 5b), or only filtered to remove cell debris (Fig. 5c). In both cases, samples were then either irradiated (405 nm) in a glass capillary (Fig. 5b,c, bottom panels) or passed through the capillary in the absence of irradiation (Fig. 5b,c, top panels).
Figure 5 Photoinduced Gag processing in the context of the assembled virion. (a) Schematic illustration of the irradiation experiment to trigger HIV-1 maturation using photoinactivation of compound 1. HEK293T cells were transfected with a proviral HIV-1 plasmid and particles were produced in the presence of 2 μM compound 1. At 44 h post transfection, tissue culture supernatant was harvested and either subjected to ultracentrifugation (b,d) or used directly (c,e). In both cases, samples were then pumped through the capillary set up shown in Supplementary Fig. 4 either with or without ultraviolet irradiation. Subsequently, samples were incubated for various lengths of time. (b,c) Immunoblot analysis of Gag processing products. Samples were separated by SDS–PAGE, and products of Gag processing were detected by quantitative immunoblot (LiCor) using antiserum raised against recombinant HIV-1 CA. The figures show samples incubated for the indicated times without prior irradiation or following irradiation, respectively. Positions of Gag-derived proteins are indicated. (d,e) Quantitative analysis of the experiments shown in b or c, respectively. Anti-CA reactive bands from the immunoblots shown and from corresponding blots from irradiated mature control virus produced in the absence of inhibitor (not shown here) were quantified using Image Studio Light. The graphs show the proportion of mature CA relative to the sum of all anti-CA reactive bands in the respective lane. Filled triangles, irradiated control virus; open circles, inhibitor-treated virus, not irradiated; filled circles, inhibitor-treated virus, irradiated. Curves through data from inhibitor-treated samples represent fits to a single exponential equation. The results are representative of several independent experiments with a slight variation in the half-time of Gag polyprotein processing between 20 and 30 min. CA, capsid; MA, matrix.
HEK293T cells were seeded in six-well plates in high-glucose, phenol red-free DMEM supplemented with penicillin/streptomycin and 10% foetal calf serum. On the following day, cells were transfected with plasmid pCHIV[37] using polyethyleneimine according to standard procedures. A final concentration of 2 μM compound 1 or DMSO (vehicle) was added to the tissue culture medium at the time of transfection. At 44 h post transfection, tissue culture supernatants were harvested, adjusted to pH 6.0 using PR buffer (50 mM MES, pH 6.0, 150 mM NaCl, 2 mM DTT, 1 mM EDTA). Alternatively, supernatants were harvested, filtered, inhibitor was removed by two successive ultracentrifugation steps through a 20% sucrose cushion and the particle pellet was resuspended in PR buffer. […]

[3] = test system: HIV-1 replication in MT-4 cells; assay: Anti-HIV-1 activity in MT-4 cells (HIV-1 NL4-3 hRluc, Renilla luciferase); details: Human immunodeficiency virus 1, MT4, 72 h, read-out: EC50, inhibition of HIV-1 replication
Method: (§3) Cytotoxicity was determined by incubating two-fold serial dilutions of 1 in triplicate in a 96-well plate
(§4) with 30,000 HEK293T cells/well seeded day ago in Dulbecco’s modified Eagle’s medium with L-
(§5) glutamine supplemented with 10% fetal calf serum (FCS, PAA), 100 U of penicillin/mL, 100 µg of
(§6) streptomycin/mL (Sigma-Aldrich) and with 30,000 MT-4 cells (obtained through the NIH AIDS
(§7) medium with 2 mM L-glutamine (PAA) supplemented with 10% FCS, 10 mM HEPES (Sigma-Aldrich),
(§8) 100 U of penicillin/ml, and 100 µg of streptomycin/mL. After 72 h of incubation at 37 °C, 5 % CO2,
(§9) tetrazolium salt XTT (Sigma-Aldrich) was added to the wells for 4 h and formation of colored
(§10) formazan solution was quantified using Victor X3 plate reader (Perkin Elmer). The percentage of
(§11) cytopathic effect (CPE) was plotted against the log10 1 concentrations and the 50 % cytotoxic
(§12) concentrations (CC50) were calculated using nonlinear regression analysis with GraphPad Prism ver. 6
(§13) 1NL4-3hRluc (HIV expressing human Renilla luciferase12) at multiplicity of infection 0.001 IU/ml for 1 h at […]
(§14) dilutions of 1. After 72 h incubation at 37 °C, 5 % CO2 HIV-1 activity was quantified by measuring
(§15) Renilla luciferase luminescence using the Renilla Luciferase Assay System (Promega) in Victor X3
(§16) plate reader. Percentage of inhibition of luminescence activity was plotted against the log10 1 […]

[4] = target: T1, purified recombinant HIV-1 PR; assay: Reactivation of inhibited HIV-1 PR by photolysis at 405 nm, cuvette set up; format: biochemical; details: 8 nM PR
Method: as §1, with “reaction).” for “reaction). At the higher concentration of compound 1, however, PR reactivation was limited even after prolonged irradiation (only 35% activity after 5 min of irradiation).”
as §2
Cuvette set up. […] The enzyme activity (and thus the efficacy of photodegradation) was followed by the decrease in absorbance at 305 nm.

[5] = test system: HEK293T cells; assay: Cytotoxicity, XTT, HEK293T cells; details: 2 μM in 0.5% DMSO; cell line not given
[6] = Cytotoxicity, XTT, HEK293T cells; details: human, HEK293T cells
Method: as §3, §4, §5, §6, §7, §8, §9, §10, §11, §12, §13, §14, §15, §16

[7] = Cytotoxicity, XTT, MT-4 cells; details: human
Method: as §3, §4, §5, §6, §7, §8, §9, §10, §11, §12, §13, §14, §15, §16

[8] = test system: HIV-1 Gag polyprotein processing; assay: Inhibition of HIV-1 Gag polyprotein processing in particles from transfected HEK293T cells (immunoblot); format: cell-based; details: Human immunodeficiency virus 1, HEK-293T; particles from HEK293T cells transfected with HIV-1 proviral plasmid; read-out: concentration giving ~50% reduction in Gag cleavage
Method: PR-mediated cleavage of the Gag polyprotein yields the mature structural proteins and two small spacer peptides (Fig. 4a), and different rates of cleavage at individual sites result in the generation of characteristic processing intermediates. First, we assessed the inhibitory potency of compound 1 on HIV-1 Gag polyprotein processing in virus producing cells. For this, particles were purified from the supernatant of HEK293T cells transfected with an HIV-1 proviral plasmid and incubated in the presence of various concentrations of compound 1.
Figure 4 Inhibition of HIV-1 Gag processing by compound 1. (a) Schematic representation of the 55 kDa HIV-1 Gag polyprotein and its cleavage products. (b) Inhibition of HIV-1 Gag processing by compound 1. HIV-1 particles were produced in HEK293T cells in the presence of the indicated inhibitor concentrations. […]
Samples were separated by SDS–PAGE (17.5%; acrylamide:bisacrylamide 200:1), and proteins were transferred to a nitrocellulose membrane by semi-dry blotting. HIV-1 Gag-derived proteins were detected using rabbit polyclonal antiserum raised against HIV-1 CA, followed by fluorescently labelled goat-anti rabbit secondary antibody (LiCor). Quantification of anti-CA reactive bands was performed using an infrared imaging system (LiCor Odyssey) and Image Studio Lite software. Data were analyzed with GraphPad prism.

[9] = target: T1, purified recombinant HIV-1 PR; assay: Inhibition of HIV-1 PR, spectrophotometric assay with chromogenic substrate (Morrison equation); format: biochemical
Method: Ki values were determined by spectrophotometric assay using purified recombinant HIV-1 PR and the chromogenic substrate KARVNleNphEaNle-NH2. Data were analyzed using the Morrison equation[35].

[10] = Solubility in culture conditions; format: physicochemical; details: 2 μM in 0.5% DMSO

Structure (SMILES) | compound degraded by irradiation (estimate) ([1]; estimated from 75% restored PR activity) | original PR activity recovered ([1]; flow rate 15 μl min^−1, inhibitor concentration 100 nM, 405 nm) | Gag processing after irradiation ([2]; culture medium without inhibitor removal, irradiated at 405 nm) | Gag processing without irradiation ([2]; culture medium without inhibitor removal, no irradiation, prolonged incubation) | mature CA (proportion of all anti-CA reactive bands) ([2]; inhibitor wash-out by ultracentrifugation, then irradiated at 405 nm, within 15 min, particles produced with 2 μM) | unprocessed or partially processed Gag products remaining ([2]; inhibitor wash-out, then irradiated, at 6 h of incubation) | half-time of Gag processing after irradiation ([2]; particles produced with 2 μM inhibitor, irradiated at 405 nm in capillary) | EC50 [3] [nM] | remaining activity at 0.01 µM ([4]; 10 nM compound 1, 405 nm irradiation, read-out: restoration of enzyme activity compared with the uninhibited enzyme reaction) [%] | PR activity after irradiation ([4]; 100 nM compound 1, after 5 min of irradiation at 405 nm) [%] | cytotoxicity at working concentration [5] | CC50 at 72 h [6] [nM] | CC50 at 72 h [7] [nM] | IC50 [8] [nM] | Ki [9] [nM] | difference in Ki values for RTV and compound 1 ([9]; RTV more potent) [fold] | loss of potency on irradiation ([9]; irradiation with a 405 nm laser, inhibitor versus photolysis product) | solubility [10] | Ki ([9]; purified recombinant HIV-1 PR, chromogenic substrate KARVNleNphEaNle-NH2, read-out: Ki) [nM]
CCN(CC)c1ccc2c(COC(=O)N[C@H](C(=O)N[C@@H](Cc3ccccc3)C[C@H](O)[C@H](Cc3ccccc3)NC(=O)OCc3cncs3)C(C)C)cc(=O)oc2c1 [compound 1] | up to 98% | up to 75% | virtually complete Gag processing | no induction of proteolysis | ~ 30% | ~ 50% | ~ 20 min | 8.1 | 65 | 35 | noncytotoxic | > 50000 | 7300 | ~500 | 0.17 ± 0.02 | 10 | 4 orders of magnitude | soluble | 
CC(C)[C@H](N)C(=O)N[C@@H](Cc1ccccc1)C[C@H](O)[C@H](Cc1ccccc1)NC(=O)OCc1cncs1 [compound 2] |  |  |  |  |  |  |  |  |  |  |  |  |  |  |  |  |  |  | 3200 ± 300

Reference: article PMC4366505, “Triggering HIV polyprotein processing by light using rapid photodegradation of a tight-binding protease inhibitor” (Nature Communications, 2015)
